Ends that are not written are not given here.
Columns and labels:
[1] = test system: urothelial tumor cell line T24; assay: Phage attachment to subconfluent cell monolayer; format: cell-based, human; conditions: 1x10^8 T.U. per well
Description: FIG. 7. Binding of selected phage clones to the human breast cancer cell line MDA-MBA435 (white bars) as well as the urothelial tumor cell lines T24 (light grey bars) and RT4 (dark grey bars). Insertless fd-tet phage were included as controls. Results are given as mean of triplicate wells relative to binding of fd-tet phage, that was set as 1. Input of phage was 1×10^8 T.U. per well. Bound phage were detected after intensive washing by infection with log phase K91 bacteria and plating of serial dilutions.
Binding of selected phage was examined with human adherent primary urothelial cells, the breast cancer cell line MDA-MB-435 and the transitional carcinoma cell lines RT4 and T24. All cells were grown to subconfluency in 48 well plates and free binding sites were blocked with 800 μl 30% FCS/DMEM (blocking medium) for 1 hour at 37° C. The blocking solution was then replaced by 200 μl 10% FCS/DMEM (washing medium) containing 1×10^8 cfu of each phage per well. After incubation for 2 hours at 4° C. to prevent unspecific endocytosis, unbound phage were removed by washing 7 times with 500 μl washing medium. For competition experiments increasing concentrations of the corresponding peptide or a control peptide (CARAC, SEQ ID NO:5) were added during the incubation. Bound phage were determined by infection with 500 μl log phase K91 culture and plating of serial dilutions. […]

[2] = test system: human bone marrow cells; assay: Binding of single phage clones to bone marrow cells by BRASIL; format: cell-based; conditions: single phage clone; negative control fd-tet phage, positive control RGD-4C phage
Description: Fresh human ribs removed during surgery for access to underlying tumors were sectioned to expose the bone marrow surface. No significant damage to the bone marrow was inflicted to the tissue and the morphology was well preserved during after the procedure. The bone samples were washed (gently) 5 times with ice cold DMEM/0.15% BSA (sterile filtered). The marrow was removed by gently scraping cells from the bone. Cells were washed twice by centrifugation and resuspension in DMEM/BSA to remove debris and fat. Cells were resuspended in DMEM/BSA (about 10^7 cells per ml) and incubated with a phage display library (10^9 TU) prepared as described above. After incubation for 3 hours on ice, the cells were centrifuged through an organic phase consisting of a 9:1 mixture of dibutylphthalate:cyclohexane. Centrifugation occurred for 10 min at 10,000×g. The bottom of the centrifuge tube was snap frozen at −80° C. and phage were recovered by bacterial infection as described above. The selection was repeated for 3 more rounds of BRASIL and 90 clones were sequenced.
A system has been designed to analyze the data resulting from peptide library screenings, adapted from the SAS package. The system is available upon request from the M. D. Anderson Cancer Center. […] The positive control was phage containing an RGD-4C insert, which is known to bind to bone marrow. […]

[3] = test system: leptin; conditions: cited from earlier work
[4] = test system: human ureter mucosa; assay: Dot blot chamber assay after removal of the GAG-layer; format: cell-based; conditions: human ureter sample
Procedure: (§1) Removal of the glucosaminoglycan- (GAG-) layer on intact mucosa samples was performed as a dot blot chamber assay. Half of the wells were incubated with 200 μl 0.1M HCl per well for 2 min, intensely rinsed with blocking solution and both parts blocked as before. Results are given relative to fd-tet phage to untreated mucosa, that was set to 1.
(§2) Using the same assay the influence of the glucosaminoglycan (GAG) layer on binding of several phage to intact mucosa was examined. The GAG-layer was removed as described above. Half of the mucosa of human ureter and porcine bladder specimens were treated inside the dot blot chamber with […] for 2 min, extensively washed and the binding assay performed as before.

[5] = test system: porcine bladder mucosa; assay: as above; format: cell-based; conditions: 0.1M HCl for 2 min; relative to untreated mucosa set to 1
Procedure: FIG. 10. Influence of the GAG-layer on phage binding. In the dot blot chamber assay portions of a porcine bladder mucosa were treated with 0.1M HCl for 2 min prior to remove the GAG-layer. Binding to treated surface is given relative to untreated surface, that was set as 1. Bound phage were detected after intensive washing by infection with log phase K91 bacteria and plating of serial dilutions.
as §1, §2

[6] = target: T1, recombinant human VEGFR-1 (human, UniProt P17948 27-758, limits assumed); assay: phage binding to immobilized receptor, against insertless fd-tet phage (not shown)
T1 construct: Bought; immobilized on microtiter wells (1 ug in 50 ul PBS); also called Flt1
Procedure: (§3) Human VEGFR-1, human VEGFR-2, rat NRP-1, and rat NRP-2 (1 μg in 50 μl of PBS) were immobilized on microtiter well plates overnight at 4° C. The wells were washed twice with PBS, blocked with PBS containing 3% BSA for 2 h at room temperature, and then incubated with 10⁹ TU of either […] […] (SEQ ID NO:11) phage, or fd-tet phage in 50 μl of PBS/1.5% BSA. After 1 hr at room temperature, wells were washed nine times with PBS and phage were recovered by bacterial infection. Serial dilutions were plated onto Luria-Bertani (LB) medium supplemented with tetracycline. VEGF₁₆₅, PDGF-BB, or synthetic peptides were used at the indicated concentrations and pre-incubated with the immobilized proteins to evaluate competitive inhibition of phage binding.

[7] = target: BSA (bovine serum albumin) (bovine, UniProt P02769 25-607); assay: phage binding to immobilized protein, recovery by bacterial infection
[8] = target: T2, recombinant rat NRP-2/Fc (rat; human, UniProt O35276 23-858, limits assumed); assay: phage binding to immobilized receptor, recovery by bacterial infection
T2 construct: Bought receptor/Fc chimera; also called neutropilin-2 (NRP-2) receptor; not shown: Fc region of human IgG1
T2 sequence (looked up): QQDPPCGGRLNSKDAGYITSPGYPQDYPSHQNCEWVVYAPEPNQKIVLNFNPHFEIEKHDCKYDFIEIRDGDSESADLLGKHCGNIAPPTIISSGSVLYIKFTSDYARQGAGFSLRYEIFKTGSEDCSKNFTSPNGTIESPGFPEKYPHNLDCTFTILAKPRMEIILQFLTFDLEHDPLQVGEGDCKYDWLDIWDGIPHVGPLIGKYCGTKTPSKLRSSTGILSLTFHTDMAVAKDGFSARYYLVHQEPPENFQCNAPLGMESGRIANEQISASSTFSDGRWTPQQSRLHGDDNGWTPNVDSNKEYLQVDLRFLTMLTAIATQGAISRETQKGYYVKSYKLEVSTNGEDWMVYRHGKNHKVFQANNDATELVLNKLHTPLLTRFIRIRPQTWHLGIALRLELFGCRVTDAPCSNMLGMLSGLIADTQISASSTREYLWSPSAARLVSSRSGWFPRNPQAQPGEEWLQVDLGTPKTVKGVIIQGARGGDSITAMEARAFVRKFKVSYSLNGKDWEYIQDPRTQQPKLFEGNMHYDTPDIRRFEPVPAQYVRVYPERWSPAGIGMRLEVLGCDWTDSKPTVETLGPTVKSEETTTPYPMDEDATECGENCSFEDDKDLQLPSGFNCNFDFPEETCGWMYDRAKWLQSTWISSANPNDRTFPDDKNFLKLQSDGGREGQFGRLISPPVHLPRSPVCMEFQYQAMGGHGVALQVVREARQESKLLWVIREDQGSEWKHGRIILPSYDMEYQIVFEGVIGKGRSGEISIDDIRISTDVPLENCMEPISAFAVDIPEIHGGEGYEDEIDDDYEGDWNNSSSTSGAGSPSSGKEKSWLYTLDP
Procedure: as §3

[9] = target: T3, recombinant human VEGFR-2/Fc (human, UniProt P35968 20-764); assay: as above
T3 construct: Bought receptor/Fc chimera; not shown: Fc region of human IgG1
Procedure: as §3

[10] = target: T4, recombinant rat NRP-1/Fc (rat; human, UniProt Q9QWJ9 22-854, limits assumed); assay: as above
T4 construct: Bought receptor/Fc chimera; also called rat Neuropilin-1; neuropilin-1; not shown: Fc region of human IgG1
T4 sequence (looked up): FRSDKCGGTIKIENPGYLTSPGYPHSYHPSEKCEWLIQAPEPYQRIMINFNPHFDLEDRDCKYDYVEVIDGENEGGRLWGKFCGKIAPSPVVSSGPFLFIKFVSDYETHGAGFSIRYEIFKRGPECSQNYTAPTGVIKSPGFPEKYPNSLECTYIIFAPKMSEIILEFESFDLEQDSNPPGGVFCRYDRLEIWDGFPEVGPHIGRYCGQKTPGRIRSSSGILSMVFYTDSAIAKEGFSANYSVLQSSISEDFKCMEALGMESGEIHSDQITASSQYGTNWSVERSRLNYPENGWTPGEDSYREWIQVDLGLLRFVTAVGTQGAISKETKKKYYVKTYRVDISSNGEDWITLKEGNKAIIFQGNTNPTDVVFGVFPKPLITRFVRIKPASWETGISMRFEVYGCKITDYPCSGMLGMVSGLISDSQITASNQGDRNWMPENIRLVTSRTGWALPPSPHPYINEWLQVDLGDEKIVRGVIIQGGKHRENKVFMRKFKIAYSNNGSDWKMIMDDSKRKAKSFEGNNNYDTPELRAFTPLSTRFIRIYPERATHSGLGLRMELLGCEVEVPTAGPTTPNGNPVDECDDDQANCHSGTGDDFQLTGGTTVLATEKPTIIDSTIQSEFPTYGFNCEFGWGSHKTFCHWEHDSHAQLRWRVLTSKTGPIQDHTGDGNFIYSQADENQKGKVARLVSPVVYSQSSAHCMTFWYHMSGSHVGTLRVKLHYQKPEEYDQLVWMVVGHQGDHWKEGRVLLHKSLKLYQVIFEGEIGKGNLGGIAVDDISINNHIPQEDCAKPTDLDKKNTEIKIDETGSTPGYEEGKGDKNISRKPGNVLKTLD
Procedure: as §3

BSA (bovine serum albumin), sequence (P02769 25-607 limits assumed): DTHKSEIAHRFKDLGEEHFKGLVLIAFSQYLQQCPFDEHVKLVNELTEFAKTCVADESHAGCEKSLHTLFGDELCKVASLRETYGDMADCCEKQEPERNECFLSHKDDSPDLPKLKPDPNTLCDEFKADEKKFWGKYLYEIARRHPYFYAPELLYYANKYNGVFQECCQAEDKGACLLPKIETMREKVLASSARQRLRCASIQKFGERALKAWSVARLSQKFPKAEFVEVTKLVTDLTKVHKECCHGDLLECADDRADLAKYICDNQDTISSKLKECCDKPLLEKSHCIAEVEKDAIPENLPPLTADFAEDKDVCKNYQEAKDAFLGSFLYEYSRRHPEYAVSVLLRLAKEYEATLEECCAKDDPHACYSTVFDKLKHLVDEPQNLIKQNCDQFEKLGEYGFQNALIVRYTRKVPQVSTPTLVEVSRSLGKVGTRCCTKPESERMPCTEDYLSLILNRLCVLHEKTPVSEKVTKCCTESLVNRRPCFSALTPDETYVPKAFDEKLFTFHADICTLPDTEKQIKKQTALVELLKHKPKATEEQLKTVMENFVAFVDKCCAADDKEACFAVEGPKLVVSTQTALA
T3 sequence (P35968 20-764 limits assumed): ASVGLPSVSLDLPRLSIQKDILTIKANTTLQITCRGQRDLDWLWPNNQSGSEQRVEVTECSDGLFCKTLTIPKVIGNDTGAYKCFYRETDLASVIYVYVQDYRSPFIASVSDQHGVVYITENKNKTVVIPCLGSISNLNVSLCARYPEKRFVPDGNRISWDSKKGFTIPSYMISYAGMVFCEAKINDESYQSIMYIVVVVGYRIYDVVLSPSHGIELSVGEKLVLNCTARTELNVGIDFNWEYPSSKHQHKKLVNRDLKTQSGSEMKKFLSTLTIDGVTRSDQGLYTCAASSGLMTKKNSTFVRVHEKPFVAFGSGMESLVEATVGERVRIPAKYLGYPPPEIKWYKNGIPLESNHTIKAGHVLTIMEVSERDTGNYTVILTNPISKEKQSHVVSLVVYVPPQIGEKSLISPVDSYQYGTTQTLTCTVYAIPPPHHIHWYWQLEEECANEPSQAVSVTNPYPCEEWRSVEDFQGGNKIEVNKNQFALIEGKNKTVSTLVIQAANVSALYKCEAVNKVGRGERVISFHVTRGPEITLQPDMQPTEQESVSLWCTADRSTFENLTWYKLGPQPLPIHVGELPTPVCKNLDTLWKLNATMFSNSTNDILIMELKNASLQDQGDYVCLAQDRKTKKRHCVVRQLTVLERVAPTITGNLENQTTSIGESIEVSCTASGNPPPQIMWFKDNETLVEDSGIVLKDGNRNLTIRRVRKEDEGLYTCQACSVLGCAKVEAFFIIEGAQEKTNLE
T1 sequence (P17948 27-758 limits assumed): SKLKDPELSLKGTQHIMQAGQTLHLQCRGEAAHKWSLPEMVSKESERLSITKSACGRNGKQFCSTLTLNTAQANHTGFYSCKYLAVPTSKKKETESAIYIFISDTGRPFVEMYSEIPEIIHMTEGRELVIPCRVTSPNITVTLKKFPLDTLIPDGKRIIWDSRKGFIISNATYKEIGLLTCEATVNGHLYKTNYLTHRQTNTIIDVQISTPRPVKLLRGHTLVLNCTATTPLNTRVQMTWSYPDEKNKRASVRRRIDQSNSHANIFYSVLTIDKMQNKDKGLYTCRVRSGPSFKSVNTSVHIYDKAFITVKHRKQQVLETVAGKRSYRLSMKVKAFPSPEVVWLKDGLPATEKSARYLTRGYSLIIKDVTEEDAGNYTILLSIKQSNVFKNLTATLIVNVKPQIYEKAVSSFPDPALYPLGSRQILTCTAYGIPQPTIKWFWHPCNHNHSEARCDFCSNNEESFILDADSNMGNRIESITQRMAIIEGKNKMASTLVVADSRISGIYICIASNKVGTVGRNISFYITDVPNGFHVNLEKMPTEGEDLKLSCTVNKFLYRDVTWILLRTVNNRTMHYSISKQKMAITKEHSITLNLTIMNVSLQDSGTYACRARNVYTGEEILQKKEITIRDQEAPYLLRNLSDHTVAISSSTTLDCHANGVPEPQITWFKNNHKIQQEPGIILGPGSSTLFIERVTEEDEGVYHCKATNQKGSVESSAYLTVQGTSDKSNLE

CGQEISGLC
binding to T24 tumor cells [1]: bound

CLGWRAAAC
binding to human bone marrow cells [2]: over twice as high as the positive control

DLLHLLAFSKSCSLLP
leptin activity in vivo [3]: block leptin activity

CWGGLSGLC
increase of phage binding after GAG-removal [4]: 3.4 fold | increase of phage binding after GAG-removal [5]: 4.2 fold

B1: phage clone-19 displaying the peptide CPQPRPLC (SEQ ID NO:6) (peptide)
peptide: CPQPRPLC
modifications: not fully specified (bridges); cysteine pairing not given here; also: displayed on pIII of filamentous phage
notes: Tested as whole filamentous phage (10^9 TU per well), not as free peptide; The peptide is expressed in the pIII protein; also called clone 19 phage; not shown: The phage pIII coat protein that carries the insert, and the residues flanking the insert
fold enrichment of binding over fd-tet phage [6]: > 1000 fold | binding result [7]: no binding (tested: 10^9 TU of phage in 50 ul) | binding result [8]: no binding (tested: 10^9 TU of phage in 50 ul) | binding result [9]: no binding (tested: 10^9 TU of phage in 50 ul) | binding result [10]: binds
